Data: US8691818B2, “Cyclic triazo and diazo sodium channel blockers” (University Of Greenwich, priority 2008, dated 2014)

Legend:
sodium channel = assay: [14C]guanidine flux: veratrine-evoked uptake of [14C]guanidine into rat forebrain synaptosomes (primary sodium channel assay); assay type: biochemical; settings: 30° for 2½ min
In short: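 Synaptosomal fraction from male Wistar rat forebrain (without cerebellum/medulla), 20-25 mg wet weight/ml. Veratrine-evoked [14C]guanidine uptake at 30° for 2½ min across a compound concentration range; IC50 from concentration-effect curves, mean±sem.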

[1] = molecular target: T1, DiHydroFolate Reductase (DHFR) (Rattus norvegicus, UniProt Q920D2); assay: Inhibition of binding of [3H]methotrexate to rat liver homogenate supernatant; settings: 125 μM; read-out: [3H]mtx binding (% inhibition @ 125 μM)
T1 construct: from tissue; host or cells: rat liver homogenate supernatant
T1 sequence (Q920D2 1-187): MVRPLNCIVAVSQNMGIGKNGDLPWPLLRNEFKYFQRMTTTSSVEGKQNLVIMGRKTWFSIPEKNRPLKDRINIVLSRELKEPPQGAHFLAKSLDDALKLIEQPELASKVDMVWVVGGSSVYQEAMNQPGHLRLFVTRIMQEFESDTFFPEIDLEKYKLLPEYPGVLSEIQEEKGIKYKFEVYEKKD
In short: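 Displacement of [3H]methotrexate binding to rat liver homogenate supernatant, prepared at 4 °C in pH 6.0 phosphate buffer with 15 mM dithiothreitol. Values are mean±sem over the number of experiments shown.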

Rat microsome stability = assay type: in vitro ADME; settings: 1 μM, rat liver microsomes
Protocol: Compounds were sent to BioFocus for measurement of their stability@1 μM concentration following incubation with rat liver microsomes for 40 minutes@37°.

hERG = hERG (Homo sapiens, UniProt Q12809); assay: hERG: inhibition of binding of [3H]astemizole to HEK-293 cells expressing human recombinant hERG; settings: for inhibition at 10 µM: human, probe [3H]astemizole
L-Type Calcium Channels = assay: L-type calcium channels: inhibition of binding of [3H]nitrendipine to rat cerebral cortex membranes; settings: for L-type Ca2+ % inhibition @ 10 μM: [3H]nitrendipine binding; for IC50: read-out: L-type Ca2+ IC50 (μM) (extrapolated from 10 μM inh'n), extrapolated assuming binding slope 1.0
[2] = tested on: 0.4 mm slices of rat hippocampus; assay: tissue or blood; assay type: cell-based; settings: for Emax at 30 µM: Rattus norvegicus, read-out: % protection (v 1 μM TTX) (mean ± sem) (no. of expt's)
Sodium Channel, Site 2 = assay type: binding, Wistar Rat; settings: for IC50: read-out: [3H]BTX-B binding Extrapolated IC50
[3] = 30 μM, iodoacetate 400 μM insult, slice ATP

Sequence of hERG (Q12809 whole entry): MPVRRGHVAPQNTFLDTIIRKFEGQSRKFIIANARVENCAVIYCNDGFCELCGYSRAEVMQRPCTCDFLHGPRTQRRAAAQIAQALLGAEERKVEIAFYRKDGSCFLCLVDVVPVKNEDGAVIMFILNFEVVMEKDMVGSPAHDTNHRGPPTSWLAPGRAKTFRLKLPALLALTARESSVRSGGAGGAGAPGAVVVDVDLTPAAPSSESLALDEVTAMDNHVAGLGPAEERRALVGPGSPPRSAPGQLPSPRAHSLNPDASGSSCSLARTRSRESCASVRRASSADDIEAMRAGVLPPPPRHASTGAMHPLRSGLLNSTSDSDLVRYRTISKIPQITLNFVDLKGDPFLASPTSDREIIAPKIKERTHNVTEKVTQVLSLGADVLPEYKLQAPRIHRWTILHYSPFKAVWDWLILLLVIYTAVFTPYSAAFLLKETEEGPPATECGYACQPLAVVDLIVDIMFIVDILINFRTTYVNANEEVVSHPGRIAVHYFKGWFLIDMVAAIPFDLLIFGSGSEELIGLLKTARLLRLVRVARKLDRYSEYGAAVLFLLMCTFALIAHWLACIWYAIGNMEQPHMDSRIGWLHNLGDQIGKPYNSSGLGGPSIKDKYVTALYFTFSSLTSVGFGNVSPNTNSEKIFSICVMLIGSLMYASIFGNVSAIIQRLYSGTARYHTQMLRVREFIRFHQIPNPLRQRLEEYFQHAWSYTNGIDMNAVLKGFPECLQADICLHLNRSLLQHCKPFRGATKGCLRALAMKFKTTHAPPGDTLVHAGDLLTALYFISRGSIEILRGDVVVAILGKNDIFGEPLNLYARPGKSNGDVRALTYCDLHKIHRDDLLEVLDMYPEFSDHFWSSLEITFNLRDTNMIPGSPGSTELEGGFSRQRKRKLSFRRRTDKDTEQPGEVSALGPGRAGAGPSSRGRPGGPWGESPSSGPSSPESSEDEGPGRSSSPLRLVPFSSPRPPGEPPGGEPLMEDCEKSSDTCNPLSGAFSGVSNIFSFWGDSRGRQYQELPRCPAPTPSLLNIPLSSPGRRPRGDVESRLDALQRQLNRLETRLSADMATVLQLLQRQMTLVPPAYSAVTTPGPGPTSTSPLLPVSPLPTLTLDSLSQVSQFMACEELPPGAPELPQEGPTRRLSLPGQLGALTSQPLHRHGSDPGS

Row | SMILES | IC50 (sodium channel) | inhibition at 125 µM [1] | IC50 (hERG) | inhibition at 10 µM (hERG) | melting point | Emax at 30 µM [2, 3] | other results
1 | CCOc1ccc2ccccc2c1-c1nnc(N)nc1N [CEN-110] | 135 µM | -23% | > 200 µM | -12% | 178 to 180 °C |  | Microsome stability % metabolized (40 min incubation 37°) (Rat microsome stability): 61.5%
2 | Nc1cnc(-c2cccc(Cl)c2Cl)c(N)n1 [CEN-87, 2,6-Diamino-3-(2,3-dichlorophenyl)pyrazine] | 288 µM | -5% | > 200 µM | 3% | 150 to 153 °C |  | L-type Ca2+ % inhibition @ 10 μM (L-Type Calcium Channels): 7%; IC50 (L-Type Calcium Channels): 133 µM
3 | NC1=N[C@H](O)[C@H]2[C@H]3O[C@]4(O)O[C@@H]([C@@H](O)[C@@]2(N1)[C@@H]4O)[C@]3(O)CO [TTX, tetrodotoxin, reference compound] |  |  |  |  |  |  | % protection (v 1 μM TTX) [2]: 100%
4 | Nc1nnc(-c2cc(Cl)ccc2C(F)(F)F)c(N)n1 [CEN-200, 3,5-Diamino-6-(5-chloro-2-trifluoromethylphenyl)-1,2,4-triazine] |  |  |  |  | 242 to 243 °C |  | [3H]BTX-B binding % inhibition (@ 10 μM) (Sodium Channel, Site 2): 14%; IC50 (Sodium Channel, Site 2): 61 µM
5 | Nc1nnc(-c2cc(F)c(F)cc2Cl)c(N)n1 [CEN-207, 3,5-Diamino-6-(2-chloro-4,5-difluorophenyl)-1,2,4-triazine] |  |  |  |  | 240 to 242 °C |  | [3H]BTX-B binding % inhibition (@ 10 μM) (Sodium Channel, Site 2): 30%; IC50 (Sodium Channel, Site 2): 23 µM
6 | Nc1nnc(C(c2ccccc2)c2ccccc2)c(N)n1 [CEN-130, 3,5-Diamino-6-(diphenylmethy)-1,2,4-triazine] | 20.4 µM | 2% | > 200 µM | -2% |  | 39% | 
7 | Nc1nnc(C(c2ccccc2)C2CCCC2)c(N)n1 (centres unmarked) [CEN-163, 3,5-Diamino-6-(1-cyclopentyl-1-phenylmethy)-1,2,4-triazine] | 8 µM | 13% | 81 µM | 11% |  | 56% | 
8 | CCc1nc(N)nc(N)c1-c1ccc(Cl)cc1 [CEN-48, 2,4-Diamino-5-(4-chlorophenyl)-6-ethyl-pyrimidine, reference compound] | 5.8 µM |  | 46 µM | 18% |  |  | L-type Ca2+ % inhibition @ 10 μM (L-Type Calcium Channels): −1%; IC50 (L-Type Calcium Channels): > 190 µM
9 | Nc1nnc(-c2ccc3ccccc3c2)c(N)n1 [CEN-73, 3,5-Diamino-6-(2-naphthyl)-1,2,4-triazine] | 81.2 µM | 5% | > 200 µM | 3% | 215 to 216 °C |  | Microsome stability % metabolized (40 min incubation 37°) (Rat microsome stability): 62.5%; L-type Ca2+ % inhibition @ 10 μM (L-Type Calcium Channels): 8%; IC50 (L-Type Calcium Channels): 115 µM
10 | O=C1NC(=O)C(c2ccccc2)(c2ccccc2)N1 [DPH, reference compound] |  |  |  |  |  |  | % protection (v 1 μM TTX) (mean ± sem) (no. of expt's) [2, 3]: 48%
11 | Cn1nc(-c2cc(C(F)(F)F)cc(C(F)(F)F)c2)c(N)nc1=N [CEN-99, 5(3)-Amino-6-[3,5-(bis-trifluoromethyl)phenyl]-2,3(2,5)-dihydro-3(5)-imino-2-methyl-1,2,4-triazine methanesulfonate] | 135 µM | -1% | 34 µM | 23% |  |  | Microsome stability % metabolized (40 min incubation 37°) (Rat microsome stability): 0.0%
12 | Nc1nnc(-c2cccc(Oc3ccccc3)c2)c(N)n1 [CEN-84, 3,5-Diamino-6-(3-phenoxphenyl)-1,2,4-triazine] | 43.7 µM | -4% | 101 µM | 9% | 152 to 153 °C |  | Microsome stability % metabolized (40 min incubation 37°) (Rat microsome stability): 33.0%; L-type Ca2+ % inhibition @ 10 μM (L-Type Calcium Channels): 7%; IC50 (L-Type Calcium Channels): 133 µM
13 | Nc1nnc(-c2cc(F)c(F)c(F)c2F)c(N)n1 [CEN-208, 3,5-Diamino-6-(2,3,4,5-tetrafluorophenyl)-1,2,4-triazine] |  |  |  |  | 233 to 235 °C |  | [3H]BTX-B binding % inhibition (@ 10 μM) (Sodium Channel, Site 2): 31%; IC50 (Sodium Channel, Site 2): 22 µM
14 | Nc1cnc(-c2cc(Cl)cc(Cl)c2Cl)c(N)n1 [CEN-86, 2,6-Diamino-3-(2,3,5-trichlorophenyl)pyrazine] | 14.1 µM | -5% | > 200 µM | 1% |  | 98% | L-type Ca2+ % inhibition @ 10 μM (L-Type Calcium Channels): 9%; IC50 (L-Type Calcium Channels): 101 µM
15 | Nc1nnc(-c2cc(OCC(F)(F)F)ccc2OCC(F)(F)F)c(N)n1 [CEN-140, 3,5-Diamino-6-[2,5-bis(2,2,2-trifluoroethoxy)phenyl]-1,2,4-triazine] | 229 µM | 3% |  |  |  | -11% | 
16 | N=c1nc(N)c(-c2cc(Cl)cc(Cl)c2Cl)nn1CC(F)F [CEN-85, 5(3)-Amino-6-(2,3,5-trichlorophenyl)-2,3(2,5)-dihydro-3(5)-imino-2-(2,2-difluoroethyl)-1,2,4-triazine] | 3.6 µM | -5% | 16 µM | 39% | 168 to 170 °C (dec.) |  | L-type Ca2+ % inhibition @ 10 μM (L-Type Calcium Channels): −15%; IC50 (L-Type Calcium Channels): > 190 µM
17 | CN1CCN(c2ncc(-c3cc(Cl)cc(Cl)c3Cl)c(N)n2)CC1 [Sipatrigine, reference compound] |  |  |  |  |  | 58% | 
18 | Nc1nnc(C2(c3ccc(Cl)cc3)CCC2)c(N)n1 [CEN-152, 3,5-Diamino-6-[1-(4-chlorophenyl)-1-cyclobuty]-1,2,4-triazine] | 479 µM | 1% |  |  |  | -10% | 
19 | Nc1nnc(-c2cccc(Cl)c2Cl)c(N)n1 [CEN-1, Lamotrigine, reference compound] | 219 µM |  |  |  |  | 41% | Microsome stability % metabolized (40 min incubation 37°) (Rat microsome stability): 0.5%; IC50 (Sodium Channel, Site 2): > 200 µM
20 | Cc1ccc(S(=O)(=O)O)cc1.Nc1nnc(-c2c(C(F)(F)F)ccc(Cl)c2Cl)c(N)n1 [CEN-209, 3,5-Diamino-6-(2,3-dichloro-6-trifluoromethylphenyl)-1,2,4-triazine tosylate] |  |  |  |  |  |  | [3H]BTX-B binding % inhibition (@ 10 μM) (Sodium Channel, Site 2): 36%; IC50 (Sodium Channel, Site 2): 18 µM
21 | Nc1ncc(-c2cc(Cl)cc(Cl)c2Cl)c(N)n1 [CEN-47, 2,4-Diamino-5-(2,3,5-trichlorophenyl)pyrimidine, reference compound] | 13.2 µM |  | 35 µM | 22% |  | 98% | 
22 | Nc1nnc(-c2sc(Cl)c(Cl)c2Cl)c(N)n1 [CEN-79, 3,5-Diamino-6-[2-(3,4,5 trichlorothienyl)]-1,2,4-triazine] | 209 µM | -1% | > 200 µM | 3% | 263 to 265 °C |  | Microsome stability % metabolized (40 min incubation 37°) (Rat microsome stability): 0.0%; L-type Ca2+ % inhibition @ 10 μM (L-Type Calcium Channels): 17%; IC50 (L-Type Calcium Channels): 48.8 µM
23 | Nc1nnc(-c2ccc(F)c(F)c2F)c(N)n1 [CEN-206, 3,5-Diamino-6-(2,3,4-trifluorophenyl)-1,2,4-triazine] |  |  |  |  | 242 to 243 °C |  | [3H]BTX-B binding % inhibition (@ 10 μM) (Sodium Channel, Site 2): 24%; IC50 (Sodium Channel, Site 2): 32 µM
24 | Nc1nnc(-c2ccccc2OCc2ccccc2)c(N)n1 [CEN-160, 3,5-Diamino-6-(2-Benzyloxyphenyl)-1,2,4-triazine] | 295 µM | -11% | > 200 µM | 0% |  | 0% | 
